# Data: ChEMBL document CHEMBL5050861 (2021)
# Assays:
# [1] = Permeability of compound by PAMPA assay; type: ADME; conditions: for Papp: read-out: permeability
# [2] = Stability of compound in rat microsomes assessed as half-life; type: ADME, Microsome
# [3] = Inhibition of recombinant mouse GALK1 using ATP as substrate incubated for 1 hr and measured by Kinase-Glo assay
# [4] = Kinetic aqueous solubility of the compound; type: physicochemical; conditions: buffer; read-out: Kinetic_solubility
SMILES,Papp [1] [×10⁻⁶ cm/s],half-life [2] [min],IC50 ([3]; read-out: IC50) [µM],solubility kinetic [4] [µg/mL],IC50 [3],permeability [1]
CC1=C(C(=O)Nc2nnc(-c3cccnc3)s2)C(c2ccccc2Cl)N=C(Nc2nc3ccccc3o2)N1 (configuration not stated),< 3.7,> 30,9.68,< 1,–,–
CC1=C(C(=O)Nc2ccnc(C(=O)O)c2)C(c2ccccc2Cl)N=C(Nc2nc3ccccc3o2)N1 (configuration not stated),< 1,> 30,3.06,> 74,–,–
CC1=C(C(=O)Nc2cc(C(=O)O)ccn2)C(c2ccc(C)cc2Cl)N=C(Nc2nc3cccnc3o2)N1 (configuration not stated),< 1,> 30,–,> 51,Not Active,–
CC1=C(C(=O)Nc2cc(C(=O)O)ccn2)[C@@H](c2ccc(C)cc2Cl)N=C(Nc2nc3ccc(F)cc3o2)N1,< 1,> 30,6.85,53.8,–,–
CC1=C(C(=O)Nc2ccc(-n3cccn3)cc2)C(c2ccccc2Cl)N=C(Nc2nc3ccccc3o2)N1 (configuration not stated),< 11.8,16.4,12.2,< 1,–,–
CC1=C(C(=O)Nc2cc(C(=O)O)ccn2)[C@H](c2ccccc2Cl)N=C(Nc2nc3ccccc3o2)N1,< 1,> 30,3.43,> 74,–,–
COc1ccc([C@@H]2N=C(Nc3nc4cccc(N)c4o3)NC(C)=C2C(=O)Nc2cc(C(=O)O)ccn2)c(Cl)c1,< 1,> 30,2.43,> 81,–,–
CC1=C(C(=O)Nc2cc(C(=O)O)ccn2)C(c2ccc(-n3ccnc3)cc2Cl)N=C(Nc2nc3ccc(F)cc3o2)N1 (configuration not stated),< 1,> 30,0.97,> 87,–,–
CC1=C(C(=O)Nc2cccc(-c3cn[nH]c3)c2)C(c2ccccc2Cl)N=C(Nc2nc3ccccc3o2)N1 (configuration not stated),< 25.4,> 30,38.5,< 1,–,–
CC1=C(C(=O)Nc2cc(C(=O)O)ccn2)C(c2ccc(-c3ccc(C)nc3)cc2Cl)N=C(Nc2nc3ccc(F)cc3o2)N1 (configuration not stated),< 1,> 30,1.22,> 90,–,–
CC1=C(C(=O)Nc2cc(C(=O)O)ccn2)[C@H](c2ccccc2Cl)N=C(Nc2nc3ccc(F)cc3o2)N1,< 1,> 30,1.72,55.6,–,–
CC1=C(C(=O)Nc2cc(C(=O)O)ccn2)[C@@H](c2ccc(C)cc2Cl)N=C(Nc2nc3cccc(N)c3o2)N1,< 1,> 30,21.7,> 78,–,–
CC1=C(C(=O)Nc2nnc(-c3cccnc3)s2)C(c2ccccc2Cl)N=C(Nc2nc3cc(Cl)ccc3o2)N1 (configuration not stated),< 3.4,> 30,19.3,< 1,–,–
CC1=C(C(=O)Nc2cc(C(=O)O)ccn2)C(c2ccc(-n3cccn3)cc2Cl)N=C(Nc2nc3ccc(F)cc3o2)N1 (configuration not stated),< 1,> 30,3.43,> 87,–,–
CCOC(=O)N1C(Nc2nc3ccccc3o2)=NC(c2ccccc2Cl)C(C(=O)Nc2cc(C(=O)O)ccn2)=C1C (configuration not stated),< 1,> 30,19.3,> 85,–,–
CC1=C(C(=O)Nc2ccc(C(N)=O)cc2)C(c2ccccc2Cl)N=C(Nc2nc3ccccc3o2)N1 (configuration not stated),< 6.3,> 30,6.85,< 1,–,–
CC1=C(C(=O)Nc2cccc(CO)c2)C(c2ccccc2Cl)N=C(Nc2nc3ccccc3o2)N1 (configuration not stated),–,> 30,9.68,< 1,–,1124.1 10^-6 cm/s
CC1=C(C(=O)Nc2cc(C(=O)O)ccn2)[C@H](c2ccc(C)cc2Cl)N=C(Nc2nc3ccc(F)cc3o2)N1,< 1,> 30,1.37,> 79,–,–
COC(=O)Cc1cccc(NC(=O)C2=C(C)NC(Nc3nc4ccccc4o3)=NC2c2ccccc2Cl)c1 (configuration not stated),< 17.4,10.3,13.7,< 1,–,–

SMILES,Papp [1] [×10⁻⁶ cm/s],half-life [2] [min],IC50 ([3]; read-out: IC50) [µM],solubility kinetic [4] [µg/mL],IC50 [3],permeability [1]
CC1=C(C(=O)Nc2ccc(C#N)cn2)C(c2ccccc2Cl)N=C(Nc2nc3ccc(F)cc3o2)N1 (configuration not stated),< 7.8,> 30,13.7,< 1,–,–
CC1=C(C(=O)Nc2cc(C(=O)O)ccn2)C(c2ccc(C)cc2Cl)N=C(Nc2nc3cnccc3o2)N1 (configuration not stated),< 1,> 30,6.85,> 51,–,–
CC1=C(C(=O)Nc2nnc(-c3cccnc3)s2)C(c2ccccc2Cl)N=C(Nc2nc3cc(C)ccc3o2)N1 (configuration not stated),< 1.5,> 30,10.9,< 1,–,–
CCOC(=O)c1nnc(NC(=O)C2=C(C)NC(Nc3nc4ccccc4o3)=NC2c2ccccc2Cl)s1 (configuration not stated),< 2.7,3.16,10.7,< 1,–,–
CCn1cc(CNC(=O)C2=C(C)NC(Nc3nc4ccc(F)cc4o3)=NC2c2ccc(C)cc2Cl)cn1 (configuration not stated),< 21.9,9.22,6.85,< 1,–,–
CC1=C(C(=O)Nc2nnc(-c3cccnc3)s2)C(c2ccccc2Cl)N=C(Nc2nc3ccc(F)cc3o2)N1 (configuration not stated),< 9.9,> 30,38.5,< 1,–,–
CC1=C(C(=O)Nc2nnc(-c3cccnc3)s2)C(c2ccccc2Cl)N=C(Nc2nc3ccc(Cl)cc3o2)N1 (configuration not stated),< 10.3,> 30,–,< 1,Not Active,–
CC1=C(C(=O)Nc2ccc(C(=O)O)cn2)C(c2ccccc2Cl)N=C(Nc2nc3ccc(F)cc3o2)N1 (configuration not stated),< 1,> 30,3.43,> 77,–,–
CC1=C(C(=O)Nc2cc(B(O)O)ccn2)C(c2ccc(C)cc2Cl)N=C(Nc2nc3ccc(F)cc3o2)N1 (configuration not stated),< 3.2,14.1,10.9,< 1,–,–
CC1=C(C(=O)Nc2ccc([N+](=O)[O-])cc2)C(c2ccccc2Cl)N=C(Nc2nc3ccccc3o2)N1 (configuration not stated),< 7.3,> 30,3.43,< 1,–,–
CC1=C(C(=O)Nc2ccc(Br)cc2)C(c2ccccc2Cl)N=C(Nc2nc3ccccc3o2)N1 (configuration not stated),< 14.9,> 30,15.3,< 1,–,–
CC1=C(C(=O)NCc2ccccn2)C(c2ccccc2Cl)N=C(Nc2nc3ccccc3o2)N1 (configuration not stated),–,6.56,19.3,1.8,–,1424 10^-6 cm/s
CC1=C(C(=O)Nc2cccc(C(=O)O)n2)C(c2ccccc2Cl)N=C(Nc2nc3ccccc3o2)N1 (configuration not stated),< 1,> 30,6.85,60,–,–
O=C(O)CNC(=O)C1CC(=O)C2=C(C1)NC(Nc1nc3ccccc3o1)=NC2c1ccccc1Cl (configuration not stated),< 1,> 30,4.85,58.2,–,–
CC1=C(C(=O)N2CCOCC2)C(c2ccccc2Cl)N=C(Nc2nc3ccccc3o2)N1 (configuration not stated),–,2.1,24.3,15.3,–,1046.7 10^-6 cm/s
COc1ccc2nc(NC3=NC(c4ccccc4Cl)C(C(=O)Nc4nnc(-c5cccnc5)s4)=C(C)N3)oc2c1 (configuration not stated),< 4.4,> 30,21.7,< 1,–,–
CC1=C(C(=O)Nc2cc(C(=O)O)ccn2)[C@@H](c2ccccc2Cl)N=C(Nc2nc3ccccc3o2)N1,< 1,> 30,19.3,> 74,–,–
CC1=C(C(=O)Nc2ccccc2CO)C(c2ccccc2Cl)N=C(Nc2nc3ccccc3o2)N1 (configuration not stated),–,7.71,17.2,< 1,–,1038.5 10^-6 cm/s
CC1=C(C(=O)Nc2cc(C(=O)O)ccn2)C(c2ccc(C)cc2Cl)N=C(Nc2nc3ncccc3o2)N1 (configuration not stated),< 1,> 30,19.3,> 51,–,–
